{"source": "paper PMC11677465", "about": "“Development of a PET Probe Targeting Bromodomain and Extra-Terminal Proteins for In Vitro and In Vivo Visualization” (Pharmaceuticals, 2024)", "target": "T1, BRD4 (Homo sapiens, UniProt O60885)", "T1 construct": "BD1 (BRD4(1), first bromodomain)", "experiment": "BROMOscan bromodomain competition binding assay with qPCR readout", "data": [{"compound": "COc1cc2c(cc1-c1c(C)nn(C)c1C)ncc1nc(C)n([C@H](C)c3ccccc3)c12", "note": "[YL10, (R)-8-methoxy-2-methyl-1-(1-phenylethyl)-7-(1,3,5-trimethyl-1H-pyrazol-4-yl)-1H-imidazo[4,5-c]quinoline]", "values": [{"measurement": "Kd", "value": 480, "unit": "nM"}]}]}
